Data as given in patent US12412916B2, “Fuel cell with polymer electrolyte membrane” (HYUNDAI MOTOR COMPANY, priority 2022, dated 2025).

Key:
[1] = type: physicochemical
Procedure: The solubility of each compound sample was observed by dissolving the same amount in a total of six solvents, including water, dimethylacetamide (DMAc), methanol, ethanol, 1-propanol and 2-propanol, and the results are shown in Table 1 and FIG. 4. In the results, if the phase separation is not visible with the naked eye and the sample is dissolved well, it is indicated as ∘, and if the phase separation is visible or the sample is not dissolved, it is indicated as x.

[2] = type: physicochemical; remark: listed apart in the source
Procedure: The thermal stability was confirmed through thermogravimetric analysis (TGA), and specifically, each compound sample was put into a heating furnace of the thermogravimetric analyzer, and the temperature was elevated from room temperature to 120° C. at 20° C./min and maintained for 10 minutes, thereby removing the remaining water and performing stabilization. Thereafter, the weight change of the sample was measured while cooling to 60° C. at 20° C./min and heating from 60° C. to 800° C. at 10° C./min in a nitrogen atmosphere, and the results are shown in Table 1 below.

CC(C)(C)c1cc(C(F)(F)C(F)(F)OC(F)(F)C(F)(F)S(=O)(=O)O)cc(C(C)(C)C)c1O [Example 1, sodium 2-(2-(3,5-di-tert-butyl-4-oxidophenyl)-1,1,2,2-tetrafluoroethoxy)-1,1,2,2-tetrafluoroethanesulfonate]
Solubility 1-propanol [1]: ○
Solubility 2-propanol [1]: ○
Solubility DMAc [1]: ○
Solubility Ethanol [1]: ○
Solubility Methanol [1]: ○
Solubility in water (in words) [1]: not dissolved in water
Thermal stability 5% decomposition temperature [2]: 255 °C
